{"source": "patent US12285394B2", "about": "“Ketogenic compounds, compositions, methods and use thereof” (9500-0535 QUEBEC INC., priority 2018, dated 2025)", "assay": "pH of the compounds", "assay_type": "physicochemical"}
{"smiles": "CC(O)CC(=O)O", "note": "(stereo not drawn) [BHB, β-hydroxybutyric acid]", "values": [{"measurement": "pKa", "value": "~4.4"}]}
